Measured values reported in patent US8546579B2, “Bicycloheteroaryl compounds as P2X7 modulators and uses thereof” (Evotec (US) Inc., priority 2006, dated 2013).

Biological target: T1, P2X7 receptor (Homo sapiens, UniProt Q99572)
T1 construct: host or cells: THP-1 cells differentiated with LPS and IFN-γ
T1 sequence (Q99572 1-595): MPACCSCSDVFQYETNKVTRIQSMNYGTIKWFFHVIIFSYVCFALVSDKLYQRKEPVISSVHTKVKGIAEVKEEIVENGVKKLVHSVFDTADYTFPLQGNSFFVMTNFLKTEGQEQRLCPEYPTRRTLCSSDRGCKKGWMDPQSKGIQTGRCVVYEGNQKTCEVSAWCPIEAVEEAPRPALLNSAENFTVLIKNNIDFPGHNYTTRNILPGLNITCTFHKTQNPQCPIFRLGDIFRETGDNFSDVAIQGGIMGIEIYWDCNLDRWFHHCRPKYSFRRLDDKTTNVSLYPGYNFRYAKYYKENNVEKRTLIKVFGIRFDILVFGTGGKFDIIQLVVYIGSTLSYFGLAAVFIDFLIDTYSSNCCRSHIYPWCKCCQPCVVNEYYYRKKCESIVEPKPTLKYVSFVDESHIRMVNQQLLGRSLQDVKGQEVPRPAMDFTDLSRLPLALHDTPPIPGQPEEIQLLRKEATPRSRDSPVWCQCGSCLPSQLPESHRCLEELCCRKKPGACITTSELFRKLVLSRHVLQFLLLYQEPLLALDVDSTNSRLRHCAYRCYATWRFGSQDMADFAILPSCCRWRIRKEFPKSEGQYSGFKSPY
Assay: IL-1β release assay in differentiated THP-1 cells stimulated with BzATP (Example 9)
Assay type: cell-based
Set-up: inhibition: dose or concentration left out as unconfirmed
Conditions: for inhibition: THP-1, read-out: IL-1β % Inhib.; for inhibition at 0.1 µM: 0.1 μM compound, "*" class symbols, read-out: IL-1β % Inhib. ("*" symbols: at 0.1 μM); for inhibition at 0.1 µM / inhibition at 0.3 µM: differentiated THP-1 cells, BzATP 250 uM; for inhibition at 0.3 µM: 0.3 μM compound, "+" class symbols, read-out: IL-1β % Inhib. @ 0.3 μM; for IC50: THP-1 cells, BzATP-stimulated IL-1β release, four parameter logistic fit
How it was run: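 IC50 derived by four-parameter logistic fit of percent inhibition of IL-1β release, measured by ELISA after 45 min stimulation with 250 uM BzATP. Cells: THP-1 differentiated 16 h with 100 ng/mL LPS plus IFN-γ, LPS-primed 2 h, compound added 30 min beforehand.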

Row | Structure (SMILES) | inhibition [%] | inhibition at 0.1 µM [%] | inhibition at 0.3 µM [%] | IC50 [nM]
1 | Cc1ccc(C(=O)Nc2cccc3c(=O)n(Cc4ccc(OC(F)(F)F)cc4)ccc23)cc1Cl [Compound 1591] | 0 to 25 | – | – | –
2 | Cc1cc(Cl)ccc1C(=O)Nc1cccc2c(=O)n(Cc3ccc(OC(F)(F)F)cc3)ccc12 [Compound 1592] | 0 to 25 | – | – | –
3 | O=C(CC1CC2CC[C@H]1C2)Nc1cccc2c(=O)n(Cc3ccc(OC(F)(F)F)cc3)ccc12 (stereo partly shown) [Compound 1593] | 0 to 25 | – | – | –
4 | O=C(Nc1cccc2c(=O)n(Cc3ccc(OC(F)(F)F)cc3)ccc12)[C@@]12C[C@@H]3C[C@@H](C[C@@H]1C3)C2 [Compound 1594] | 0 to 25 | – | – | –
5 | O=C(Nc1cccc2c(=O)n(Cc3ccc(OC(F)(F)F)cc3)ccc12)c1cccc2c1OCCO2 [Compound 1595] | 0 to 25 | – | – | –
6 | O=C(Nc1cccc2c(=O)n(Cc3ccc(OC(F)(F)F)cc3)ccc12)c1ccc2c(c1)OCCCO2 [Compound 1596] | 0 to 25 | – | – | –
7 | O=C(Cc1csc2ccccc12)Nc1cccc2c(=O)n(Cc3ccc(OC(F)(F)F)cc3)ccc12 [Compound 1597] | 0 to 25 | – | – | –
8 | Cc1c(Cl)cccc1C(=O)Nc1cccc2c(=O)n(Cc3ccc(OC(F)(F)F)cc3)ccc12 [Compound 1598] | – | 26 to 50 | – | –
9 | Cc1cc(C)cc(CC(=O)Nc2cccc3c(=O)n(Cc4ccc(OC(F)(F)F)cc4)ccc23)c1 [Compound 1599] | – | 0 to 25 | – | –
10 | O=C(Nc1cccc2c(=O)n(Cc3ccc(OC(F)(F)F)cc3)ccc12)C1C[C@@H]2CC[C@H]1C2 (stereo partly shown) [Compound 1600] | – | 0 to 25 | – | –
11 | COc1ccc(CC(=O)Nc2cccc3c(=O)n(Cc4ccc(OC(F)(F)F)cc4)ccc23)c(OC)c1 [Compound 1601] | – | 0 to 25 | – | –
12 | Cc1cc(C(=O)Nc2cccc3c(=O)n(Cc4ccc(OC(F)(F)F)cc4)ccc23)ccc1F [Compound 1602] | – | 0 to 25 | – | –
13 | O=C(CCc1ccc(Cl)cc1)Nc1cccc2c(=O)n(Cc3ccc(OC(F)(F)F)cc3)ccc12 [Compound 1603] | – | 0 to 25 | – | –
14 | CCOc1ccccc1CC(=O)Nc1cccc2c(=O)n(Cc3ccc(OC(F)(F)F)cc3)ccc12 [Compound 1604] | – | 0 to 25 | – | –
15 | COc1ccc(CC(=O)Nc2cccc3c(=O)n(Cc4ccc(OC(F)(F)F)cc4)ccc23)cc1C [Compound 1605] | – | 0 to 25 | – | –
16 | Cc1cccc(CCC(=O)Nc2cccc3c(=O)n(Cc4ccc(OC(F)(F)F)cc4)ccc23)c1 [Compound 1606] | – | 0 to 25 | – | –
17 | Cc1cccc(C(=O)Nc2cccc3c(=O)n(Cc4ccc(OC(F)(F)F)cc4)ccc23)c1Cl [Compound 1607] | – | 0 to 25 | – | –
18 | COc1ccc(C(=O)Nc2cccc3c(=O)n(Cc4ccc(OC(F)(F)F)cc4)ccc23)cc1C [Compound 1608] | – | 0 to 25 | – | –
19 | Cc1ccc(CCC(=O)Nc2cccc3c(=O)n(Cc4ccc(OC(F)(F)F)cc4)ccc23)c(C)c1 [Compound 1609] | – | 0 to 25 | – | –
20 | O=C(CCc1cccc(Cl)c1)Nc1cccc2c(=O)n(Cc3ccc(OC(F)(F)F)cc3)ccc12 [Compound 1610] | – | 0 to 25 | – | –
21 | CN(C)CCn1ccc2c(NC(=O)Cc3ccc(Cl)cc3C(F)(F)F)cccc2c1=O [Compound 1611] | – | – | 0 to 25 | 930

Row | Structure (SMILES) | inhibition [%] | inhibition at 0.1 µM [%] | inhibition at 0.3 µM [%] | IC50 [nM]
22 | CC(C)C(C(=O)Nc1cccc2c(=O)n(CCN(C)C)ccc12)c1ccc(Cl)cc1 (stereo not shown) [Compound 1612] | – | – | 0 to 25 | > 1000
23 | CN(C)CCn1ccc2c(NC(=O)Cc3ccccc3Br)cccc2c1=O [Compound 1613] | – | – | 0 to 25 | > 1000
24 | CN(C)CCn1ccc2c(NC(=O)C3(c4ccc(Cl)cc4)CCCC3)cccc2c1=O [Compound 1614] | – | – | 0 to 25 | > 1000
25 | CO[C@@](C(=O)Nc1cccc2c(=O)n(CCN(C)C)ccc12)(c1ccccc1)C(F)(F)F [Compound 1615] | – | – | 0 to 25 | > 1000
26 | CO[C@](C(=O)Nc1cccc2c(=O)n(CCN(C)C)ccc12)(c1ccccc1)C(F)(F)F [Compound 1616] | – | – | 0 to 25 | > 1000
27 | CC(=O)OCCn1ccc2c(NC(=O)Cc3ccc(C(F)(F)F)cc3C(F)(F)F)cccc2c1=O [Compound 1617] | – | – | 26 to 50 | 417
28 | CN(C)CCn1ccc2c(NC(=O)Cc3ccc(C(F)(F)F)cc3C(F)(F)F)cccc2c1=O [Compound 1618] | – | – | 0 to 25 | > 1000
29 | CC(C)(C)OC(=O)N1CCC[C@H]1Cn1ccc2c(NC(=O)CC3CCCCCC3)cccc2c1=O [Compound 1619] | – | – | ≥ 76 | 67.2
30 | CC(C)(C)OC(=O)N1CCC[C@@H]1Cn1ccc2c(NC(=O)Cc3ccc(Cl)c(C(F)(F)F)c3)cccc2c1=O [Compound 1620] | – | – | ≥ 76 | 41.1
31 | CC(C)(C)OC(=O)N1CCC[C@H]1Cn1ccc2c(NC(=O)Cc3ccc(Cl)c(C(F)(F)F)c3)cccc2c1=O [Compound 1621] | – | – | ≥ 76 | 6.86
32 | CC(C(N)=O)n1ccc2c(NC(=O)C3COc4cc(C(C)(C)C)ccc4O3)cccc2c1=O (stereo not shown) [Compound 1622] | – | – | 0 to 25 | > 1000
33 | COCCn1ccc2c(NC(=O)Cc3ccc(Cl)c(C(F)(F)F)c3)cccc2c1=O [Compound 1623, 2-(4-Chloro-3-trifluoromethyl-phenyl)-N-[2-(2-methoxy-ethyl)-1-oxo-1,2-dihydro-isoquinolin-5-yl]-acetamide] | – | – | ≥ 76 | 9.24
34 | O=C(Cc1ccc(Cl)c(C(F)(F)F)c1)Nc1cccc2c(=O)n(Cc3ccc(C(F)(F)F)nc3)ccc12 [Compound 1624, 2-(4-Chloro-3-trifluoromethyl-phenyl)-N-[1-oxo-2-(6-trifluoromethyl-pyridin-3-ylmethyl)-1,2-dihydro-isoquinolin-5-yl]-acetamide] | – | – | 26 to 50 | 365
35 | CS(=O)(=O)CCn1ccc2c(NC(=O)CC3(O)CCCCCC3)cccc2c1=O [Compound 1625] | – | – | 0 to 25 | > 1000
36 | O=C(Cc1cccc(C(F)(F)F)c1F)Nc1cccc2c(=O)n(Cc3ccc(C(F)(F)F)nc3)ccc12 [Compound 1626] | – | – | 0 to 25 | > 1000
37 | O=C(Cc1cccc(C(F)(F)F)c1F)Nc1cccc2c(=O)n(Cc3ccccn3)ccc12 [Compound 1627] | – | – | 26 to 50 | 416
38 | O=C(Cc1ccc(Cl)c(C(F)(F)F)c1)Nc1cccc2c(=O)n(Cc3ccccn3)ccc12 [Compound 1628, 2-(4-Chloro-3-trifluoromethyl-phenyl)-N-(1-oxo-2-pyridin-2-ylmethyl-1,2-dihydro-isoquinolin-5-yl)-acetamide] | – | – | ≥ 76 | 55.9
39 | CC1(C)CCCC(O)(CC(=O)Nc2cccc3c(=O)n(CCS(C)(=O)=O)ccc23)C1 (stereo not shown) [Compound 1629] | – | – | 26 to 50 | 457
40 | CS(=O)(=O)CCn1ccc2c(NC(=O)Cc3ccc(Cl)c(C(F)(F)F)c3)cccc2c1=O [Compound 1630, 2-(4-Chloro-3-trifluoromethyl-phenyl)-N-[2-(2-methanesulfonyl-ethyl)-1-oxo-1,2-dihydro-isoquinolin-5-yl]acetamide] | – | – | ≥ 76 | 108
41 | CC(C(=O)Nc1cccc2c(=O)n(CCS(C)(=O)=O)ccc12)c1ccc(Cl)cc1 (stereo not shown) [Compound 1631] | – | – | 0 to 25 | > 1000
42 | CS(=O)(=O)CCn1ccc2c(NC(=O)Cc3ccc(Cl)c(Cl)c3)cccc2c1=O [Compound 1632] | – | – | 26 to 50 | 315
